# Measurements taken from patent US12077503B2, “Substituted cyclic amides and their use as herbicides” (FMC CORPORATION, priority 2015, dated 2024).
# Tests used:
# Type in all cases: in vivo
# [1] = tested on: arrowleaf Sida (Sida rhombifolia); experiment: Test E preemergence; details: scale 0 to 100
# In short: (§1)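 Seeds planted in silt loam were treated preemergence, and plants in Redi-Earth peat medium at 2 to 18 cm (1- to 4-leaf) were treated postemergence, with test chemicals in non-phytotoxic solvent with surfactant. Plants kept in greenhouse 14 to 21 d, then visually rated against controls on a 0–100 scale (0 no effect, 100 complete control).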
# [2] = tested on: crabgrass, Brazil (Brazilian crabgrass, Digitaria horizontalis); experiment: Test E preemergence; details: scale 0 to 100
# In short: as §1
# [3] = tested on: field bindweed (Convolvulus arvensis); experiment: Test E preemergence; details: scale 0 to 100
# In short: as §1
# [4] = tested on: foxtail, giant (giant foxtail, Setaria faberii); experiment: Test E preemergence; details: scale 0 to 100
# In short: as §1
# [5] = tested on: goosegrass (Eleusine indica); experiment: Test E preemergence; details: scale 0 to 100
# In short: as §1
# [6] = tested on: lambsquarters (Chenopodium album); experiment: Test E preemergence; details: scale 0 to 100
# In short: as §1
# [7] = tested on: nightshade (eastern black nightshade, Solanum ptycanthum); experiment: Test E preemergence; details: scale 0 to 100
# In short: as §1
# [8] = tested on: ragweed (common ragweed, Ambrosia elatior); experiment: Test E preemergence; details: scale 0 to 100
# In short: as §1
# [9] = tested on: ryegrass, Italian (Italian ryegrass, Lolium multiflorum); experiment: Test E preemergence; details: scale 0 to 100
# In short: as §1
# [10] = tested on: sandbur (southern sandbur, Cenchrus echinatus); experiment: Test E preemergence; details: scale 0 to 100
# In short: as §1
# soybean (Glycine max) = experiment: Test E preemergence; details: scale 0 to 100
# In short: as §1
# [11] = tested on: surinam grass (Brachiaria decumbens); experiment: Test E preemergence; details: scale 0 to 100
# In short: as §1
# [12] = tested on: velvetleaf (Abutilon theophrasti); experiment: Test E preemergence; details: scale 0 to 100
# In short: as §1
# Kochia (Kochia scoparia) = experiment: Test C postemergence; details: scale 0 to 100, 0 no effect, 100 complete control
# Source text: (§2) Seeds of plant species selected from blackgrass (Alopecurus myosuroides), ryegrass, Italian (Italian ryegrass, Lolium multiflorum), wheat (winter wheat, Triticum aestivum), Galium (catchweed bedstraw, Galium aparine), corn (Zea mays), crabgrass, large (large crabgrass, Digitaria sanguinalis), foxtail, giant (giant foxtail, Setaria faberii), johnsongrass (Sorghum halepense), lambsquarters (Chenopodium album), morningglory (Ipomoea coccinea), nutsedge, yellow (yellow nutsedge, Cyperus esculentus), pigweed (Amaranthus retroflexus), ragweed (common ragweed, Ambrosia elatior), soybean (Glycine max), barnyardgrass (Echinochloa crus-galli), oilseed rape (Brassica napus), waterhemp (common waterhemp, Amaranthus rudis) and velvetleaf (Abutilon theophrasti) were planted into a blend of loam soil and sand and treated preemergence with test chemicals formulated in a non-phytotoxic solvent mixture which included a surfactant.
# (§3) At the same time, plants selected from these crop and weed species and also Kochia (Kochia scoparia), oat, wild (wild oat, Avena fatua), and chickweed (common chickweed, Stellaria media) were planted in pots containing Sunshine Redi-Earth® planting medium comprising spaghnum peat moss, vermiculite, starter nutrients and dolomitic limestone and treated with postemergence applications of test chemicals formulated in the same manner. Plants ranged in height from 2 to 18 cm (1- to 4-leaf stage) for postemergence treatments. Treated plants and controls were maintained in a greenhouse for 13 to 15 d, after which time all species were compared to controls and visually evaluated. Plant response ratings, summarized in Table C, are based on a scale of 0 to 100 where 0 is no effect and 100 is complete control. A dash (-) response means no test result.
# [13] = tested on: wheat (winter wheat, Triticum aestivum); experiment: Test C postemergence; details: scale 0 to 100, 0 no effect, 100 complete control
# Source text: as §2, §3
structure (smiles),measurement,setting,value
CN1CC(c2cccc(OC(F)(F)C(F)F)c2)C(C(=O)Nc2cccc(F)c2F)C1=O (stereo not drawn) [Compound 392],Plant response rating: Arrowleaf Sida,[1]; 31 g ai/ha,0
same,Plant response rating: Arrowleaf Sida,[1]; 62 g ai/ha,15
same,Plant response rating: Arrowleaf Sida,[1]; 125 g ai/ha,65
same,Plant response rating: Arrowleaf Sida,[1]; 250 g ai/ha,80
same,"Plant response rating: Crabgrass, Brazil",[2]; 31 g ai/ha,98
same,"Plant response rating: Crabgrass, Brazil",[2]; 62 g ai/ha,98
same,"Plant response rating: Crabgrass, Brazil",[2]; 125 g ai/ha,98
same,"Plant response rating: Crabgrass, Brazil",[2]; 250 g ai/ha,98
same,Plant response rating: Field Bindweed,[3]; 31 g ai/ha,0
same,Plant response rating: Field Bindweed,[3]; 62 g ai/ha,0
same,Plant response rating: Field Bindweed,[3]; 125 g ai/ha,35
same,Plant response rating: Field Bindweed,[3]; 250 g ai/ha,70
same,"Plant response rating: Foxtail, Giant",[4]; 31 g ai/ha,90
same,"Plant response rating: Foxtail, Giant",[4]; 62 g ai/ha,95
same,"Plant response rating: Foxtail, Giant",[4]; 125 g ai/ha,98
same,"Plant response rating: Foxtail, Giant",[4]; 250 g ai/ha,98
same,Plant response rating: Goosegrass,[5]; 31 g ai/ha,85
same,Plant response rating: Goosegrass,[5]; 62 g ai/ha,90
same,Plant response rating: Goosegrass,[5]; 125 g ai/ha,95
same,Plant response rating: Goosegrass,[5]; 250 g ai/ha,95
same,Plant response rating: Lambsquarters,[6]; 31 g ai/ha,75
same,Plant response rating: Lambsquarters,[6]; 62 g ai/ha,75
same,Plant response rating: Lambsquarters,[6]; 125 g ai/ha,98
same,Plant response rating: Lambsquarters,[6]; 250 g ai/ha,100
same,Plant response rating: Nightshade,[7]; 31 g ai/ha,20
same,Plant response rating: Nightshade,[7]; 62 g ai/ha,80
same,Plant response rating: Nightshade,[7]; 125 g ai/ha,90
same,Plant response rating: Nightshade,[7]; 250 g ai/ha,90
same,Plant response rating: Ragweed,[8]; 31 g ai/ha,0
same,Plant response rating: Ragweed,[8]; 62 g ai/ha,0
same,Plant response rating: Ragweed,[8]; 125 g ai/ha,0
same,Plant response rating: Ragweed,[8]; 250 g ai/ha,65
same,"Plant response rating: Ryegrass, Italian",[9]; 31 g ai/ha,0
same,"Plant response rating: Ryegrass, Italian",[9]; 62 g ai/ha,10
same,"Plant response rating: Ryegrass, Italian",[9]; 125 g ai/ha,60
same,"Plant response rating: Ryegrass, Italian",[9]; 250 g ai/ha,70
same,Plant response rating: Sandbur,[10]; 31 g ai/ha,0
same,Plant response rating: Sandbur,[10]; 62 g ai/ha,60
same,Plant response rating: Sandbur,[10]; 125 g ai/ha,60
same,Plant response rating: Sandbur,[10]; 250 g ai/ha,90
same,Plant response rating: Soybean,soybean (Glycine max); 31 g ai/ha,0
same,Plant response rating: Soybean,soybean (Glycine max); 62 g ai/ha,0
same,Plant response rating: Soybean,soybean (Glycine max); 125 g ai/ha,20
same,Plant response rating: Soybean,soybean (Glycine max); 250 g ai/ha,25
same,Plant response rating: Surinam Grass,[11]; 31 g ai/ha,0
same,Plant response rating: Surinam Grass,[11]; 62 g ai/ha,0
same,Plant response rating: Surinam Grass,[11]; 125 g ai/ha,15
same,Plant response rating: Surinam Grass,[11]; 250 g ai/ha,30
same,Plant response rating: Velvetleaf,[12]; 31 g ai/ha,0
same,Plant response rating: Velvetleaf,[12]; 62 g ai/ha,20
same,Plant response rating: Velvetleaf,[12]; 125 g ai/ha,50
same,Plant response rating: Velvetleaf,[12]; 250 g ai/ha,75
CN1CC(c2ccc(F)c(F)c2)C(C(=O)Nc2ccccc2S(C)(=O)=O)C1=O (stereo not drawn) [Compound 640],"Plant response rating, Kochia",Kochia (Kochia scoparia); 31 g ai/ha,20
same,"Plant response rating, Kochia",Kochia (Kochia scoparia); 62 g ai/ha,30
same,"Plant response rating, Kochia",Kochia (Kochia scoparia); 125 g ai/ha,30
same,"Plant response rating, Kochia",Kochia (Kochia scoparia); 250 g ai/ha,75
same,"Plant response rating, Wheat",[13]; 31 g ai/ha,0
same,"Plant response rating, Wheat",[13]; 62 g ai/ha,0
same,"Plant response rating, Wheat",[13]; 125 g ai/ha,0
same,"Plant response rating, Wheat",[13]; 250 g ai/ha,0
